# Results published in patent US20260234112A1, “COMPOUNDS, COMPOSITIONS, AND METHODS OF USE THEREOF” (Type6 Therapeutics, Inc., priority 2023, published 2026).
# Target: T1, Cdk2(2-298) (Homo sapiens, UniProt P24941)
# T1 construct: Biotinylated N-terminal avi-tagged Cdk2(2-298) or Cdk1(1-297) was immobilized
# Test: Surface Plasmon Resonance (SPR) compound interaction, Biacore 8K
# Assay type: binding
# Conditions: single-cycle kinetics (SCK, "S"), dissociation 1800 sec, read-out: Activity rating (KD)
# Summary of the method: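 Biotinylated N-terminal avi-tagged Cdk2(2-298) captured on streptavidin chip at 2500–3000 RU in 25 mM HEPES, 150 mM NaCl, 0.05% Tween20, pH 7.5, 1% DMSO final. Eight 3-fold compound concentrations injected 120 sec at 30 μl/min, multi- or single-cycle kinetics; dissociation 180 sec (MCK) or 1800 sec (SCK).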
row,Kd [nM],Compound
1,100 to 1000,"N[C@H]1CC[C@H](Nc2nccc(-c3cnccc3Oc3ccc(NS(=O)(=O)c4ccc(CCO)cc4F)c(F)c3)n2)CC1 [Compound 84, N-[4-[[3-[2-(1r,4r)[(4-Aminocyclohexyl)amino]pyrimidin-4-yl]-4-pyridyl]oxy]-2-fluorophenyl] 2-fluoro-4-(2-hydroxyethyl)benzenesulfonamide]"
2,100 to 1000,CN(C)CCNc1nccc(-c2cnccc2Oc2ccc(NS(=O)(=O)c3ccccc3Cl)cc2F)n1 [Compound 85]
3,100 to 1000,O=S(=O)(Nc1ccc(Oc2ccncc2-c2ccnc(NCCN3CCOCC3)n2)c(F)c1)c1ccccc1Cl [Compound 86]
4,100 to 1000,O=S(=O)(Nc1ccc(Oc2ccncc2-c2ccnc(NCCOCCO)n2)c(F)c1)c1ccccc1Cl [Compound 87]
5,≤ 10,O=S(=O)(Nc1ccc(Oc2ccncc2-c2ccnc(NC3COC3)n2)c(F)c1)c1ccccc1Cl [Compound 88]
6,11 to 100,O=S(=O)(Nc1ccc(Oc2ccncc2-c2ccnc(NC3COC3)n2)c(F)c1)c1ccccc1Cl [Compound 89]
7,100 to 1000,O=S(=O)(Nc1ccc(Oc2ccncc2-c2ccnc(NCCN3CCCC3)n2)c(F)c1)c1ccccc1Cl [Compound 90]
8,100 to 1000,COCCOCCNc1nccc(-c2cnccc2Oc2ccc(NS(=O)(=O)c3ccccc3Cl)cc2F)n1 [Compound 91]
9,≤ 10,O=S(=O)(Nc1ccc(Oc2ccncc2-c2ccnc(NC3CC4(CNC4)C3)n2)c(F)c1)c1ccccc1Cl [Compound 92]
10,100 to 1000,CN1CC[C@H](Nc2nccc(-c3cnccc3Oc3ccc(NS(=O)(=O)c4ccccc4Cl)cc3F)n2)C1 [Compound 93]
11,100 to 1000,O=S(=O)(Nc1ccc(Oc2ccncc2-c2ccnc(NCCN3CCC3)n2)c(F)c1)c1ccccc1Cl [Compound 94]
12,11 to 100,O=S(=O)(Nc1ccc(Oc2ccncc2-c2ccnc(NCCn3ccnc3)n2)c(F)c1)c1ccccc1Cl [Compound 95]
13,100 to 1000,O=S(=O)(Nc1ccc(Oc2ccncc2-c2ccnc(NCCc3ncc[nH]3)n2)c(F)c1)c1ccccc1Cl [Compound 96]
14,100 to 1000,O=S(=O)(Nc1ccc(Oc2ccncc2-c2ccnc(NCCNCCO)n2)c(F)c1)c1ccccc1Cl [Compound 97]
15,11 to 100,O=S(=O)(Nc1ccc(Oc2ccncc2-c2ccnc(NC3CNC3)n2)c(F)c1)c1ccccc1Cl [Compound 98]
16,100 to 1000,CN1CC2(CC(Nc3nccc(-c4cnccc4Oc4ccc(NS(=O)(=O)c5ccccc5Cl)cc4F)n3)C2)C1 [Compound 99]
17,≤ 10,CN(CCNc1nccc(-c2cnccc2Oc2ccc(NS(=O)(=O)c3ccccc3Cl)cc2F)n1)S(C)(=O)=O [Compound 100]
18,11 to 100,O=S(=O)(Nc1ccc(Oc2ccncc2-c2ccnc(NC3CN(C4COC4)C3)n2)c(F)c1)c1ccccc1Cl [Compound 101]

row,Kd [nM],Compound
1,11 to 100,CN1CC(Nc2nccc(-c3cnccc3Oc3ccc(NS(=O)(=O)c4ccccc4Cl)cc3F)n2)C1 [Compound 102]
2,100 to 1000,CS(=O)(=O)N1CCC[C@H](Nc2nccc(-c3cnccc3Oc3ccc(NS(=O)(=O)c4ccccc4Cl)cc3F)n2)C1 [Compound 103]
3,100 to 1000,COCCNCCNc1nccc(-c2cnccc2Oc2ccc(NS(=O)(=O)c3ccccc3Cl)cc2F)n1 [Compound 104]
4,11 to 100,COCCN1CC(Nc2nccc(-c3cnccc3Oc3ccc(NS(=O)(=O)c4ccccc4Cl)cc3F)n2)C1 [Compound 105]
5,100 to 1000,O=S(=O)(Nc1ccc(Oc2ccncc2-c2ccnc(NC3CN(CCO)C3)n2)c(F)c1)c1ccccc1Cl [Compound 106]
6,100 to 1000,COCCOCCN1CC(Nc2nccc(-c3cnccc3Oc3ccc(NS(=O)(=O)c4ccccc4Cl)cc3F)n2)C1 [Compound 107]
7,≤ 10,"N[C@H]1CC[C@H](Nc2nccc(-c3cccnc3Sc3ccc(NS(=O)(=O)c4ccccc4Cl)cc3F)n2)CC1 [Compound 108, N-(4-((3-(2-(((1r,4r)-4-Aminocyclohexyl)amino)pyrimidin-4-yl)pyridin-2-yl)thio)-3-fluorophenyl) 2-chlorobenzenesulfonamide]"
8,≤ 10,"O=S(=O)(Nc1ccc(Sc2ncccc2-c2ccnc(N[C@H]3CCCNC3)n2)c(F)c1)c1ccccc1Cl [Compound 109, N-[3-Fluoro-4-[[3-[2-[[(3S)-3-piperidyl]amino]pyrimidin-4-yl]-2-pyridyl]thio]phenyl] 2-chlorobenzenesulfonamide]"
9,11 to 100,"N[C@H]1CC[C@H](Nc2nccc(-c3cccnc3Sc3ccc(NS(=O)(=O)c4ccccc4)cc3F)n2)CC1 [Compound 110, N-(4-((3-(2-(((1r,4r)-4-Aminocyclohexyl)amino)pyrimidin-4-yl)pyridin-2-yl)thio)-3-fluorophenyl) benzenesulfonamide]"
10,11 to 100,"N[C@H]1CC[C@H](Nc2nccc(-c3cccnc3Sc3ccc(NS(=O)(=O)c4cccc5ccccc45)cc3F)n2)CC1 [Compound 111, N-(4-((3-(2-(((1r,4r)-4-Aminocyclohexyl)amino)pyrimidin-4-yl)pyridin-2-yl)thio)-3-fluorophenyl) naphthalene-1-sulfonamide]"
11,100 to 1000,"O=S(=O)(Nc1ccc(Sc2ncccc2-c2ccnc(N[C@H]3CCCNC3)n2)c(F)c1)c1cccc2ccccc12 [Compound 113, N-[3-fluoro-4-[[3-[2-[[(3S)-3-piperidyl]amino]pyrimidin-4-yl]-2-pyridyl]sulfanyl]phenyl] naphthalene-1-sulfonamide]"
12,≤ 10,"N[C@H]1CC[C@H](Nc2nccc(-c3cnccc3Sc3ccc(NS(=O)(=O)c4ccccc4Cl)cc3F)n2)CC1 [Compound 116, N-[4-[[3-[2-[((1r,4r)4 aminocyclohexyl)amino]pyrimidin-4-yl]-4-pyridyl]thio]-3-fluoro-phenyl] 2-chlorobenzenesulfonamide]"
13,11 to 100,"N[C@H]1CC[C@H](Nc2nccc(-c3cnccc3Sc3ccc(NS(=O)(=O)c4ccccc4)cc3F)n2)CC1 [Compound 117, N-[4-(1r,4r)[[3-[2-[(4-aminocyclohexyl)amino]pyrimidin-4-yl]-4-pyridyl]sulfanyl]-3-fluorophenyl] benzenesulfonamide]"
14,100 to 1000,"N[C@H]1CC[C@H](Nc2nccc(-c3cnccc3Sc3ccc(NS(=O)(=O)c4cccc5ccccc45)cc3F)n2)CC1 [Compound 118, N-[4-(1r,4r)[[3-[2-[(4-Aminocyclohexyl)amino]pyrimidin-4-yl]-4-pyridyl]sulfanyl]-3-fluorophenyl]naphthalene-1-sulfonamide]"
15,11 to 100,"O=S(=O)(Nc1ccc(Oc2ncncc2-c2ccnc(N[C@H]3CCCNC3)n2)c(F)c1)c1ccccc1Cl [Compound 127, N-[3-fluoro-4-[5-[2-[[(3S)-3-piperidyl]amino]pyrimidin-4-yl]pyrimidin-4-yl]oxyphenyl] 2-chlorobenzenesulfonamide]"
16,≤ 10,"N[C@H]1CC[C@H](Nc2nccc(-c3cncnc3Oc3ccc(NS(=O)(=O)c4ccccc4Cl)cc3F)n2)CC1 [Compound 128, N-[4-[5-[2-[(1r,4r)(4-aminocyclohexyl)amino]pyrimidin-4-yl]pyrimidin-4-yl]oxy-3-fluorophenyl] 2-chlorobenzenesulfonamide]"
17,100 to 1000,"O=S(=O)(Nc1ccc(Oc2ncncc2-c2ccnc(N[C@H]3CCCNC3)n2)c(F)c1)c1ccccc1 [Compound 129, N-[3-fluoro-4-[5-[2-[[(3S)-3-piperidyl]amino]pyrimidin-4-yl]pyrimidin-4-yl]oxy-phenyl] benzenesulfonamide]"
